Laboratory results from ChEMBL document CHEMBL1201862, “PubChem BioAssay data set” (2004).
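Grown in 96-well plates, cells were treated for 48 hours with each compound at five concentrations. Insufficient inhibition: endpoint recorded as highest concentration tested. GI50 is the concentration that inhibits growth by half.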 Calls of active or inactive are those of the source. Cut-off read from the data, not from the text of the source: active = GI50 up to about 1.1 µM and inactive = higher.

Key:
Assay in all cases: growth of human tumour cells (NCI), 48 h
SW-620 = tested on: SW-620
A549 = tested on: A549
SK-MEL-28 = tested on: SK-MEL-28
NCI-H522 = tested on: NCI-H522
COLO 205 = tested on: COLO 205
ACHN = tested on: ACHN
HOP-92 = tested on: HOP-92
MCF7 = tested on: MCF7
HT-29 = tested on: HT-29
BT-549 = tested on: BT-549
OVCAR-4 = tested on: OVCAR-4
MDA-N = tested on: MDA-N
NCI-H23 = tested on: NCI-H23
SK-MEL-2 = tested on: SK-MEL-2
K562 = tested on: K562
RXF 393 = tested on: RXF 393
HL-60 = tested on: HL-60
SF-295 = tested on: SF-295
RPMI-8226 = tested on: RPMI-8226
UACC-62 = tested on: UACC-62
HCT-116 = tested on: HCT-116
SF-268 = tested on: SF-268
DU-145 = tested on: DU-145
Malme-3M = tested on: Malme-3M
A498 = tested on: A498
SN12C = tested on: SN12C
OVCAR-3 = tested on: OVCAR-3
786-0 = tested on: 786-0
NCI-H460 = tested on: NCI-H460
KM12 = tested on: KM12
UACC-257 = tested on: UACC-257
HCC 2998 = tested on: HCC 2998
IGROV-1 = tested on: IGROV-1
OVCAR-8 = tested on: OVCAR-8
M14 = tested on: M14
OVCAR-5 = tested on: OVCAR-5
PC-3 = tested on: PC-3
SR = tested on: SR
SF-539 = tested on: SF-539
TK-10 = tested on: TK-10
T47D = tested on: T47D
UO-31 = tested on: UO-31
SK-MEL-5 = tested on: SK-MEL-5
MDA-MB-435 = tested on: MDA-MB-435
HCT-15 = tested on: HCT-15
MOLT-4 = tested on: MOLT-4
NCI-H226 = tested on: NCI-H226
SNB-75 = tested on: SNB-75
U-251 = tested on: U-251
NCI/ADR-RES = tested on: NCI/ADR-RES
SNB-19 = tested on: SNB-19
CAKI-1 = tested on: CAKI-1
MDA-MB-231 = tested on: MDA-MB-231
CCRF-CEM = tested on: CCRF-CEM
HOP-62 = tested on: HOP-62
LOX IMVI = tested on: LOX IMVI
EKVX = tested on: EKVX
SK-OV-3 = tested on: SK-OV-3
Hs-578T = tested on: Hs-578T

Question: With `CCOP(=O)(OCC)C(N)Cc1ccc(OC)c(OC)c1` (stereo unspecified) as the molecule, how does the GI50 (SW-620) read?
Answer: > 100000 nM (inactive)

Question: And the GI50 (A549)?
Answer: > 100000 nM (inactive)

Question: What about the GI50 (SK-MEL-28) of the same molecule?
Answer: > 100000 nM (inactive)

Question: And the GI50 (NCI-H522)?
Answer: > 100000 nM (inactive)

Question: And the GI50 (COLO 205)?
Answer: > 100000 nM (inactive)

Question: What about the GI50 (ACHN) of the same molecule?
Answer: > 100000 nM (inactive)

Question: And the GI50 (HOP-92)?
Answer: > 100000 nM (inactive)

Question: And the GI50 (MCF7)?
Answer: 45300 nM (inactive)

Question: What about the GI50 (HT-29) of the same molecule?
Answer: > 100000 nM (inactive)

Question: And the GI50 (BT-549)?
Answer: > 100000 nM (inactive)

Question: And the GI50 (OVCAR-4)?
Answer: > 100000 nM (inactive)

Question: And the GI50 (MDA-N)?
Answer: > 100000 nM (inactive)

Question: What about the GI50 (NCI-H23) of the same molecule?
Answer: > 100000 nM (inactive)

Question: And the GI50 (SK-MEL-2)?
Answer: > 100000 nM (inactive)

Question: And the GI50 (K562)?
Answer: > 100000 nM (inactive)

Question: And the GI50 (RXF 393)?
Answer: > 100000 nM (inactive)

Question: And the GI50 (HL-60)?
Answer: > 100000 nM (inactive)

Question: And the GI50 (SF-295)?
Answer: > 100000 nM (inactive)

Question: And the GI50 (RPMI-8226)?
Answer: > 100000 nM (inactive)

Question: And the GI50 (UACC-62)?
Answer: > 100000 nM (inactive)

Question: What about the GI50 (HCT-116) of the same molecule?
Answer: > 100000 nM (inactive)

Question: What about the GI50 (SF-268) of the same molecule?
Answer: > 100000 nM (inactive)

Question: What about the GI50 (DU-145) of the same molecule?
Answer: > 100000 nM (inactive)

Question: What about the GI50 (Malme-3M) of the same molecule?
Answer: > 100000 nM (inactive)

Question: And the GI50 (A498)?
Answer: > 100000 nM (inactive)

Question: And the GI50 (SN12C)?
Answer: > 100000 nM (inactive)

Question: And the GI50 (OVCAR-3)?
Answer: > 100000 nM (inactive)

Question: What about the GI50 (786-0) of the same molecule?
Answer: > 100000 nM (inactive)

Question: What about the GI50 (NCI-H460) of the same molecule?
Answer: > 100000 nM (inactive)

Question: What about the GI50 (KM12) of the same molecule?
Answer: > 100000 nM (inactive)

Question: And the GI50 (UACC-257)?
Answer: > 100000 nM (inactive)

Question: And the GI50 (HCC 2998)?
Answer: > 100000 nM (inactive)

Question: And the GI50 (IGROV-1)?
Answer: > 100000 nM (inactive)

Question: And the GI50 (OVCAR-8)?
Answer: > 100000 nM (inactive)

Question: What about the GI50 (M14) of the same molecule?
Answer: > 100000 nM (inactive)

Question: And the GI50 (OVCAR-5)?
Answer: > 100000 nM (inactive)

Question: And the GI50 (PC-3)?
Answer: > 100000 nM (inactive)

Question: What about the GI50 (SR) of the same molecule?
Answer: > 100000 nM (inactive)

Question: What about the GI50 (SF-539) of the same molecule?
Answer: > 100000 nM (inactive)

Question: And the GI50 (TK-10)?
Answer: > 100000 nM (inactive)

Question: What about the GI50 (T47D) of the same molecule?
Answer: > 100000 nM (inactive)

Question: And the GI50 (UO-31)?
Answer: > 100000 nM (inactive)

Question: And the GI50 (SK-MEL-5)?
Answer: > 100000 nM (inactive)

Question: And the GI50 (MDA-MB-435)?
Answer: > 100000 nM (inactive)

Question: And the GI50 (HCT-15)?
Answer: > 100000 nM

Question: What about the GI50 (MOLT-4) of the same molecule?
Answer: > 100000 nM (inactive)

Question: And the GI50 (NCI-H226)?
Answer: > 100000 nM (inactive)

Question: What about the GI50 (SNB-75) of the same molecule?
Answer: > 100000 nM (inactive)

Question: And the GI50 (U-251)?
Answer: > 100000 nM (inactive)

Question: What about the GI50 (NCI/ADR-RES) of the same molecule?
Answer: > 100000 nM (inactive)

Question: And the GI50 (SNB-19)?
Answer: > 100000 nM (inactive)

Question: What about the GI50 (CAKI-1) of the same molecule?
Answer: > 100000 nM (inactive)

Question: What about the GI50 (MDA-MB-231) of the same molecule?
Answer: > 100000 nM (inactive)

Question: What about the GI50 (CCRF-CEM) of the same molecule?
Answer: > 100000 nM (inactive)

Question: What does the source list for `C[C@@H]1O[C@@H](O[C@H]2CC[C@]3(C=O)[C@H]4CC[C@]5(C)[C@@H](C6=CC(=O)OC6)CC[C@]5(O)[C@@H]4CC[C@]3(O)C2)[C@H](O)[C@H](O)[C@H]1O` [CONVALLATOXIN]?
Answer: GI50 (SW-620): 0.0393 nM (active); GI50 (A549): < 10 nM (active); GI50 (SK-MEL-28): 0.064 nM (active); GI50 (NCI-H522): 0.00993 nM (active); GI50 (COLO 205): 0.0935 nM (active); GI50 (ACHN): 0.00973 nM (active); GI50 (HOP-92): 0.0483 nM (active); GI50 (HT-29): 0.0478 nM (active); GI50 (HOP-62): 0.0105 nM (active); GI50 (BT-549): 0.0132 nM (active); GI50 (OVCAR-4): 0.00728 nM (active); GI50 (MDA-N): 0.043 nM (active); GI50 (LOX IMVI): 0.0293 nM (active); GI50 (NCI-H23): 0.00993 nM (active); GI50 (SK-MEL-2): 0.071 nM (active); GI50 (EKVX): 0.00951 nM (active); GI50 (K562): 0.0492 nM (active); GI50 (RXF 393): 0.0167 nM (active); GI50 (HL-60): 0.0342 nM (active); GI50 (SF-295): 0.0273 nM (active); GI50 (RPMI-8226): 0.0445 nM (active); GI50 (UACC-62): 0.0585 nM (active); GI50 (HCT-116): < 10 nM (active); GI50 (SF-268): 0.0121 nM (active); GI50 (DU-145): 0.00665 nM (active); GI50 (Malme-3M): 0.0371 nM (active); GI50 (A498): 0.0574 nM (active); GI50 (SN12C): 0.00869 nM (active); GI50 (OVCAR-3): 0.00891 nM (active); GI50 (786-0): 0.00879 nM (active); GI50 (SK-OV-3): 0.0437 nM (active); GI50 (NCI-H460): 0.00847 nM (active); GI50 (KM12): 0.0839 nM (active); GI50 (UACC-257): 0.0667 nM (active); GI50 (HCC 2998): < 10 nM (active); GI50 (IGROV-1): < 10 nM (active); GI50 (OVCAR-8): 0.0294 nM (active); GI50 (M14): 14.6 nM (active); GI50 (OVCAR-5): 0.0424 nM (active); GI50 (PC-3): 0.0262 nM (active); GI50 (SF-539): 0.0183 nM (active); GI50 (TK-10): 0.0288 nM (active); GI50 (T47D): 0.0562 nM (active); GI50 (Hs-578T): < 10 nM (active); GI50 (UO-31): < 10 nM (active); GI50 (SK-MEL-5): 0.0205 nM (active); GI50 (MDA-MB-435): 0.0423 nM (active); GI50 (HCT-15): 0.0469 nM; GI50 (MOLT-4): 0.00601 nM (active); GI50 (NCI-H226): 0.0535 nM (active); GI50 (SNB-75): 0.043 nM (active); GI50 (U-251): 0.0558 nM (active); GI50 (NCI/ADR-RES): 0.0126 nM (active); GI50 (SNB-19): 17.8 nM (active); GI50 (CAKI-1): 0.0123 nM (active); GI50 (MDA-MB-231): 0.13 nM (active); GI50 (CCRF-CEM): < 10 nM (active)
